Source: patent US20080114005A1, “Fibrate Compounds Having Ppar Agonist Activity” (Dr. Reddy's Laboratories Limited, priority 2004, published 2008)

Q: With `CCOC(=O)C(C)(CC)Sc1ccc(OCCCn2c(C)nc3ccccc3c2=O)cc1` (stereo not shown) [Example 55, 2-Methyl-2-{4-[3-(2-methyl-4-oxo-4H-quinazolin-3-yl)-propoxy]-phenylsulfanyl}-butyric acid ethyl ester] as the compound, how does the melting point read?
A: The melting point was 164 to 166 °C.

Q: For `CCC(C)(Sc1ccc(OCCCn2c(C)nc3ccccc3c2=O)cc1)C(=O)O` (stereo not shown) [Example 56, 2-Methyl-2-{4-[3-(2-methyl-4-oxo-4H-quinazolin-3-yl)-propoxy]-phenylsulfanyl}-butyric acid], which melting point is on record?
A: Its melting point is 130 to 132 °C.

Q: For `CCCc1nn(C)c2c(=O)n(CCOc3ccc(OC(C)(C)C(=O)O)cc3)cnc12` [Example 58, 2-Methyl-2-{4-[2-(1-methyl-7-oxo-3-propyl-1,7-dihydro-pyrazolo[4,3-d]pyrimidin-6-yl)-ethoxy]-phenoxy}-propionic acid], which melting point is on record?
A: The melting point was 144 to 146 °C.

Q: With `CCCc1nn(C)c2c(=O)n(CCOc3ccc(OC(C)(C)C(=O)OCC)cc3)c(C)nc12` [Example 59, 2-{4-[2-(1,5-Dimethyl-7-oxo-3-propyl-1,7-dihydro-pyrazolo[4,3-d]pyrimidin-6-yl)-ethoxy]-phenoxy}-2-methyl-propionic acid ethyl ester] as the compound, how does the melting point read?
A: Its melting point is 98 to 100 °C.

Q: Which melting point does the source give for `CCCc1nn(C)c2c(=O)n(CCOc3ccc(OC(C)(C)C(=O)O)cc3)c(C)nc12` [Example 60, 2-{4-[2-(1,5-Dimethyl-7-oxo-3-propyl-1,7-dihydro-pyrazolo[4,3-d]pyrimidin-6-yl)-ethoxy]-phenoxy}-2-methyl-propionic acid] here?
A: Its melting point is 146 to 148 °C.

Q: For `CCCc1nn(C)c2c(=O)n(CCNc3ccc(OC(C)(C)C(=O)O)cc3)c(C)nc12` [Example 62, 2-{4-[2-(1,5-Dimethyl-7-oxo-3-propyl-1,7-dihydro-pyrazolo[4,3-d]pyrimidin-6-yl)-ethylamino]-phenoxy}-2-methyl-propionic acid], which melting point is on record?
A: Its melting point is 88 to 90 °C.

Q: With `CCCc1nn(C)c2c(=O)n(CCCOc3ccc(OC(C)(C)C(=O)O)cc3)cnc12` [Example 64, 2-Methyl-2-{4-[3-(1-methyl-7-oxo-3-propyl-1,7-dihydro-pyrazolo[4,3-d]pyrimidin-6-yl)-propoxy]-phenoxy}-propionic acid] as the compound, how does the melting point read?
A: The melting point was 136 to 138 °C.

Q: Which melting point does the source give for `CCCc1nn(C)c2c(=O)n(CCCOc3ccc(OC(C)(C)C(=O)O)cc3)c(C)nc12` [Example 66, 2-{4-[3-(1,5-Dimethyl-7-oxo-3-propyl-1,7-dihydro-pyrazolo[4,3-d]pyrimidin-6-yl)-propoxy]-phenoxy}-2-methyl-propionic acid] here?
A: The melting point was 158 to 160 °C.

Q: For `CCCc1nn(C)c2c(=O)n(CCCNc3ccc(OC(C)(C)C(=O)O)cc3)c(C)nc12` [Example 68, 2-{4-[3-(1,5-Dimethyl-7-oxo-3-propyl-1,7-dihydro-pyrazolo[4,3-d]pyrimidin-6-yl)-propylamino]-phenoxy}-2-methyl-propionic acid], which melting point is on record?
A: The melting point was 104 to 106 °C.

Q: With `CCCc1nn(C)c2c(=O)n(CCOc3ccc(OC(C)(C)C(=O)OCC)cc3)c(CC)nc12` [Example 69, 2-{4-[2-(5-Ethyl-1-methyl-7-oxo-3-propyl-1,7-dihydro-pyrazolo[4,3-d]pyrimidin-6-yl)-ethoxy]-phenoxy}-2-methyl-propionic acid ethyl ester] as the compound, how does the melting point read?
A: The melting point was 66 to 68 °C.

Q: Which melting point does the source give for `CCCc1nn(C)c2c(=O)n(CCOc3ccc(OC(C)(C)C(=O)O)cc3)c(CC)nc12` [Example 70, 2-{4-[2-(5-Ethyl-1-methyl-7-oxo-3-propyl-1,7-dihydro-pyrazolo[4,3-d]pyrimidin-6-yl)-ethoxy]-phenoxy}-2-methyl-propionic acid] here?
A: Its melting point is 108 to 110 °C.

Q: For `CCCc1nn(C)c2c(=O)n(CCCNc3ccc(OC(C)(C)C(=O)O)cc3)c(CC)nc12` [Example 72, 2-{4-[3-(5-Ethyl-1-methyl-7-oxo-3-propyl-1,7-dihydro-pyrazolo[4,3-d]pyrimidin-6-yl)-propylamino]-phenoxy}-2-methyl-propionic acid], which melting point is on record?
A: Its melting point is 124 to 126 °C.

Q: Which melting point does the source give for `CCCc1nn(C)c2c(=O)n(CCCOc3ccc(OC(C)(C)C(=O)O)cc3)c(CC)nc12` [Example 74, 2-{4-[3-(5-Ethyl-1-methyl-7-oxo-3-propyl-1,7-dihydro-pyrazolo[4,3-d]pyrimidin-6-yl)-propoxy]-phenoxy}-2-methyl-propionic acid] here?
A: The melting point was 124 to 126 °C.

Q: With `CCCc1nn(C)c2c(=O)n(CCNc3ccc(OC(C)(C)C(=O)O)cc3)c(CC)nc12` [Example 76, 2-{4-[2-(5-Ethyl-1-methyl-7-oxo-3-propyl-1,7-dihydro-pyrazolo[4,3-d]pyrimidin-6-yl)-ethylamino]-phenoxy}-2-methyl-propionic acid] as the compound, how does the melting point read?
A: The melting point was 136 to 138 °C.

Q: With `CCCc1nn(C)c2c(=O)n(CCCc3cccc(OC(C)(CC)C(=O)O)c3)c(C)nc12` (stereo not shown) [Example 87, 2-{3-[3-(1,5-Dimethyl-7-oxo-3-propyl-1,7-dihydro-pyrazolo[4,3-d]pyrimidin-6-yl)-propyl]-phenoxy}-2-methyl-butyric acid] as the compound, how does the melting point read?
A: The melting point was 136 to 138 °C.

Q: With `CCCc1nn(C)c2c(=O)n(CCOc3ccc(OC4(C(=O)OCC)CCC4)cc3)c(C)nc12` [Example 90, 1-{4-[2-(1,5-Dimethyl-7-oxo-3-propyl-1,7-dihydro-pyrazolo[4,3-d]pyrimidin-6-yl)-ethoxy]-phenoxy}-cyclobutanecarboxylic acid ethyl ester] as the compound, how does the melting point read?
A: Its melting point is 132 to 134 °C.

Q: With `CCCc1nn(C)c2c(=O)n(CCOc3ccc(OC4(C(=O)O)CCC4)cc3)c(C)nc12` [Example 91, 1-{4-[2-(1,5-Dimethyl-7-oxo-3-propyl-1,7-dihydro-pyrazolo[4,3-d]pyrimidin-6-yl)-ethoxy]-phenoxy}-cyclobutanecarboxylic acid] as the compound, how does the melting point read?
A: Its melting point is 188 to 190 °C.

Q: With `CCCc1nn(CC)c2c(=O)n(CCOc3cccc(OC(C)(C)C(=O)O)c3)c(C)nc12` [Example 93, 2-{3-[2-(1-Ethyl-5-methyl-7-oxo-3-propyl-1,7-dihydro-pyrazolo[4,3-d]pyrimidin-6-yl)-ethoxy]-phenoxy}-2-methyl-propionic acid] as the compound, how does the melting point read?
A: Its melting point is 147 to 149 °C.

Q: With `CCCc1nn(C)c2c(=O)n(CCOc3cc(O[C@@](C)(CC)C(=O)O)ccc3Cl)c(C)nc12` [Example 106, S-(−)-2-{4-Chloro-3-[2-(1,5-dimethyl-7-oxo-3-propyl-1,7-dihydro-pyrazolo[4,3-d]pyrimidin-6-yl)-ethoxy]-phenoxy}-2-methyl-butyric acid] as the compound, how does the melting point read?
A: Its melting point is 99 to 100 °C.
